Measurements published in US9637469B2, “Pyridine derivative” (Teijin Pharma Limited, priority 2012, dated 2017).

target: T1, human URAT1 (Homo sapiens, UniProt Q96S37); experiment: Test for inhibition of uric acid transport using human URAT1-expressing cells;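 also: three stars up to 0.2 µM two stars 0.2-2 µM one star 2-20 µM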; format: cell-based; conditions: HEK 293 cells expressing human URAT1; 14C-labeled uric acid 25 μM; uptake 37° C. for 5 min
T1 construct: Full-length cDNA of human URAT1 (hURAT1)
T1 sequence (Q96S37 1-553): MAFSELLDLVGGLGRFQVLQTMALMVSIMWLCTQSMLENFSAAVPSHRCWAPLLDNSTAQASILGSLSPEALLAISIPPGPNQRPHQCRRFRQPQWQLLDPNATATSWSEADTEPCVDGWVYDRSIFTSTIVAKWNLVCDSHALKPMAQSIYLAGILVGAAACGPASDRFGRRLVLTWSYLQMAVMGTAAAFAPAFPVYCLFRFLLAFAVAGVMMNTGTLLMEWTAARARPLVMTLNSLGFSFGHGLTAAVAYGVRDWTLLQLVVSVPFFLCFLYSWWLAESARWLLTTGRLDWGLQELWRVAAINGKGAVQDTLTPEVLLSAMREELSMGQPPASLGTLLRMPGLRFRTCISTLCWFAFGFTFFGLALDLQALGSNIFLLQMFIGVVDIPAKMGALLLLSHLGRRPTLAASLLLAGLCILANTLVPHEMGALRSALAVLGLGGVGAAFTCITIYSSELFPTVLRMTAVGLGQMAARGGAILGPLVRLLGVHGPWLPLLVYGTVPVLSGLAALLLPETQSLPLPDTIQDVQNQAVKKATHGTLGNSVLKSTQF
Procedure: (1) Preparation of the Test Compound
The test compound was dissolved in DMSO (produced by Sigma) to a concentration of 20 mM and was subsequently used by diluting to desired concentrations.
(2) Test for Inhibition of Uric Acid Transport Using Human URAT1-Expressing Cells
Full-length cDNA of human URAT1 (hURAT1) (produced by OriGene Technologies, Inc., NCBI Reference Sequence: NM 144585) was subcloned into an expression vector, pCMV6-Kan/Neo (produced by OriGene Technologies, Inc.), and hURAT1 gene was transfected into human embryonic kidney-derived cells (HEK 293 cells) by liposome method using Lipofectamine 2000 (produced by Invitrogen Corporation), whereupon HEK 293 cells expressing human URAT1 gene were screened by its Geneticin resistance. By a method similar to the following method, functional expression of human URAT1 gene was confirmed by using transport of ^14C-labeled uric acid into the cells as an index.
The HEK 293 cells expressing human URAT1 were seeded in a 24-well cell culture dish to a density of 3×10^5 cells/mL/well and were cultured in Dulbecco's modified Eagle's medium (D-MEM medium) containing 10% fetal bovine serum at 37° C. for 2 days. Thereafter, the following test for inhibition of uric acid transport was performed.
After the medium was removed by aspiration from each well, the medium was replaced with a solution obtained by substituting NaCl in Hank's Balanced Salt Solution (HBSS) with Na gluconate (hereinafter, HBSS/Na-gluconate) and the cells were preincubated at 37° C. for about 10 minutes. HBSS/Na-gluconate was removed by aspiration and a ^14C-uric acid solution that was warmed at 37° C. in advance containing various concentrations of the Example compound described in (1) and a radioactive ligand (^14C-labeled uric acid; final concentration 25 μM) was added and an uptake reaction was carried out by incubating at 37° C. for 5 min. After the incubation, ^14C-labeled uric acid solution was removed by aspiration and the cells were washed three times with ice-cold HBSS. The HEK 293 cells expressing human URAT1 were lysed in 0.2 mol/L aqueous NaOH (hereafter, the cell sample) and the cell samples were collected. The cell sample and a liquid scintillation liquid, ULTIMA GOLD (produced by PerkinElmer, Inc.) were mixed and the radioactivity was measured by a liquid scintillation counter (Beckman Coulter, Inc.).
The uric acid transport rate of the Example compound at each concentration (% of control uptake) was calculated relative to the radioactivity (radioactivity in human URAT1 expressing HEK 293 cells without addition of the Example compound (DMSO addition)) showing URAT1-specific uric acid transport as 100%, and the concentration (IC50) of the Example compound at which the uric acid transport rate is inhibited by 50% was determined. In addition, the symbols (*, **, and ***) in the table represent the following inhibitory activity values: • IC50≦_ 0.2 μM: *** • 0.2 μM<IC50≦2 μM: ** • 2 μM<IC50≦20 μM: *

Compound | Inhibitory Activity (IC50 of uric acid transport inhibition)
CC(C)c1nc(-c2cccnc2)n(Cc2cccc3ccsc23)c1C(=O)O [Compound A83, 1-(benzo[b]thiophen-7-ylmethyl)-4-isopropyl-2-(pyridin-3-yl)-1H-imidazole-5-carboxylic acid] | * *
O=C(O)c1c(C(F)(F)F)nc(-c2cccnc2)n1Cc1cccc2ccsc12 [Compound A84, 1-(benzo[b]thiophen-7-ylmethyl)-2-(pyridin-3-yl)-4-(trifluoromethyl)-1H-imidazole-5-carboxylic acid] | * *
Cc1nc(-c2cccnc2)n(Cc2cc(F)cc3ccsc23)c1C(=O)O [Compound A85, 1-((5-fluorobenzo[b]thiophen-7-yl)methyl)-4-methyl-2-(pyridin-3-yl)-1H-imidazole-5-carboxylic acid] | * * *
O=C(O)c1c(C2CC2)nc(-c2cccnc2)n1Cc1cc(F)cc2ccsc12 [Compound A86, 4-cyclopropyl-1-((5-fluorobenzo[b]thiophen-7-yl)methyl)-2-(pyridin-3-yl)-1H-imidazole-5-carboxylic acid] | * * *
O=C(O)c1c(-c2ccccc2)nc(-c2cccnc2)n1Cc1cc(Cl)ccc1Cl [Compound A91, 1-(2,5-dichlorobenzyl)-4-phenyl-2-(pyridin-3-yl)-1H-imidazole-5-carboxylic acid] | * * *
O=C(O)c1c(-c2cccc(F)c2)nc(-c2cccnc2)n1Cc1cc(Cl)ccc1Cl [Compound A92, 1-(2,5-dichlorobenzyl)-4-(3-fluorophenyl)-2-(pyridin-3-yl)-1H-imidazole-5-carboxylic acid] | * * *
O=C(O)c1c(-c2ccc(F)cc2)nc(-c2cccnc2)n1Cc1cc(Cl)ccc1Cl [Compound A93, 1-(2,5-dichlorobenzyl)-4-(4-fluorophenyl)-2-(pyridin-3-yl)-1H-imidazole-5-carboxylic acid] | * * *
O=C(O)c1c(-c2cccnc2)nc(-c2cccnc2)n1Cc1cc(Cl)ccc1Cl [Compound A94, 1-(2,5-dichlorobenzyl)-2,4-di(pyridin-3-yl)-1H-imidazole-5-carboxylic acid] | * *
O=C(O)c1c(OCC(F)(F)F)nc(-c2cccnc2)n1Cc1cc(Cl)ccc1Cl [Compound A98, 1-(2,5-dichlorobenzyl)-2-(pyridin-3-yl)-4-(2,2,2-trifluoroethoxy)-1H-imidazole-5-carboxylic acid] | * * *
Cc1ccc(Oc2nc(-c3cccnc3)n(Cc3cc(Cl)ccc3Cl)c2C(=O)O)cc1 [Compound A99, 1-(2,5-dichlorobenzyl)-2-(pyridin-3-yl)-4-(p-tolyloxy)-1H-imidazole-5-carboxylic acid] | * * *
O=C(O)c1c(Oc2ccc(F)cc2)nc(-c2cccnc2)n1Cc1cc(Cl)ccc1Cl [Compound A100, 1-(2,5-dichlorobenzyl)-4-(4-fluorophenoxy)-2-(pyridin-3-yl)-1H-imidazole-5-carboxylic acid] | * * *
O=C(O)c1c(C2=CCCC2)nc(-c2cccnc2)n1Cc1cc(Cl)ccc1Cl [Compound A103, 4-(1-cyclopenten-1-yl)-1-(2,5-dichlorobenzyl)-2-(pyridin-3-yl)-1H-imidazole-5-carboxylic acid] | * *
CCC(O)(CC)c1nc(-c2cccnc2)n(Cc2cc(Cl)ccc2Cl)c1C(=O)O [Compound A109, 1-(2,5-dichlorobenzyl)-4-(3-hydroxypentan-3-yl)-2-(pyridin-3-yl)-1H-imidazole-5-carboxylic acid] | * *
Clc1ccc(Cl)c(Cn2c(-c3nnn[nH]3)cnc2-c2cccnc2)c1 [Compound A110, 3-(1-(2,5-dichlorobenzyl)-5-(1H-tetrazol-5-yl)-1H-imidazol-2-yl)pyridine] | * *

Continued, values first:

Inhibitory Activity (IC50 of uric acid transport inhibition) | Compound
* * * | O=C(O)c1c(Cl)nc(-c2cccnc2)n1Cc1cc(Cl)ccc1Cl [Compound A88, 4-chloro-1-(2,5-dichlorobenzyl)-2-(pyridin-3-yl)-1H-imidazole-5-carboxylic acid]
* * * | O=C(O)c1c(Br)nc(-c2cccnc2)n1Cc1cc(Cl)ccc1Cl [Compound A89, 4-bromo-1-(2,5-dichlorobenzyl)-2-(pyridin-3-yl)-1H-imidazole-5-carboxylic acid]
* * * | O=C(O)c1c(I)nc(-c2cccnc2)n1Cc1cc(Cl)ccc1Cl [Compound A90, 1-(2,5-dichlorobenzyl)-4-iodo-2-(pyridin-3-yl)-1H-imidazole-5-carboxylic acid]
* * * | COc1nc(-c2cccnc2)n(Cc2cc(Cl)ccc2Cl)c1C(=O)O [Compound A96, 1-(2,5-dichlorobenzyl)-4-methoxy-2-(pyridin-3-yl)-1H-imidazole-5-carboxylic acid]
* * * | N#Cc1nc(-c2cccnc2)n(Cc2cc(Cl)ccc2Cl)c1C(=O)O [Compound A101, 4-cyano-1-(2,5-dichlorobenzyl)-2-(pyridin-3-yl)-1H-imidazole-5-carboxylic acid]
* * | C=Cc1nc(-c2cccnc2)n(Cc2cc(Cl)ccc2Cl)c1C(=O)O [Compound A102, 1-(2,5-dichlorobenzyl)-2-(pyridin-3-yl)-4-vinyl-1H-imidazole-5-carboxylic acid]
* * * | CSc1nc(-c2cccnc2)n(Cc2cc(Cl)ccc2Cl)c1C(=O)O [Compound A104, 1-(2,5-dichlorobenzyl)-4-(methylthio)-2-(pyridin-3-yl)-1H-imidazole-5-carboxylic acid]
* * * | CCSc1nc(-c2cccnc2)n(Cc2cc(Cl)ccc2Cl)c1C(=O)O [Compound A105, 1-(2,5-dichlorobenzyl)-4-(ethylthio)-2-(pyridin-3-yl)-1H-imidazole-5-carboxylic acid]
* * * | CC(C)(O)c1nc(-c2cccnc2)n(Cc2cc(Cl)ccc2Cl)c1C(=O)O [Compound A108, 1-(2,5-dichlorobenzyl)-4-(2-hydroxypropan-2-yl)-2-(pyridin-3-yl)-1H-imidazole-5-carboxylic acid]

same assay, conditions: HEK 293 cells expressing human URAT1; 14C-labeled uric acid 25 μM; uptake 37° C. for 5 min; read-out: Inhibitory Activity (IC50 of uric acid transport inhibition)

IC50 [µM] | Compound
2 to 20 | O=C(O)c1c(-c2ccncc2)nc(-c2cccnc2)n1Cc1cc(Cl)ccc1Cl [Compound A95]
2 to 20 | O=C(O)c1c(OCCO)nc(-c2cccnc2)n1Cc1cc(Cl)ccc1Cl [Compound A97]
2 to 20 | C[S+]([O-])c1nc(-c2cccnc2)n(Cc2cc(Cl)ccc2Cl)c1C(=O)O (centres unmarked) [Compound A106]
2 to 20 | CC[S+]([O-])c1nc(-c2cccnc2)n(Cc2cc(Cl)ccc2Cl)c1C(=O)O (centres unmarked) [Compound A107]
2 to 20 | Cc1nc(-c2cccnc2)n(Cc2cc(Cl)ccc2Cl)c1C(=O)NS(C)(=O)=O [Compound A111, 1-(2,5-dichlorobenzyl)-4-methyl-N-(methylsulfonyl)-2-(pyridin-3-yl)-1H-imidazole-5-carboxamide]

Compound | IC50 [µM]
Cc1nc(-c2cccnc2)n(C(C)c2cc(Cl)ccc2Cl)c1C(=O)O (centres unmarked) [Compound A87] | 2 to 20
